Measurements: EP0860438B1, “Fluorine-containing diphenyl acrylamide antimicrobial agents” (Shenyang Research Institute of Chemical Industry, priority 1997, dated 1998)
Like-named read-outs stand apart in the source and are kept apart here.

Assays:
cucumber downy mildew [1] = experiment: Indoor comparison with currently available antimicrobial agents, therapeutic effect (Example 12); type: in vivo, Pseudoperonospora cubensis; details: seedling of yellow melon
cucumber downy mildew [2] = experiment: Indoor comparison with currently available antimicrobial agents, protective effect (Example 12); type: in vivo, Pseudoperonospora cubensis; details: seedling of yellow melon
[3] = system: cucumber downy mildew (Pseudoperonospora cubensis); experiment: Test for inhibition of spore germination in cucumber downy mildew; type: cell-based
late blight of tomato = type: in vivo; details: three treatments, examined on June 20, field
Downy mildew [4] = experiment: Indoor comparison with Dimethomorph, test for therapy (Example 11); details: seedling of yellow melon, 2 - 3 leaf stage
Excerpt: (§1) Test was divided into test for therapy and test for protection. Concentration of two chemicals (Compound 1 and Dimethomorph) was set at 150 and 100 ppm, and each treatment was run three times. A blank control was set separately. Samples were selected from seedling of yellow melon in the 2 - 3 leaf stage. Method of treatment and study was the same as before.

cucumber downy mildew [5] = experiment: Field protection test against cucumber downy mildew (Example 13); type: in vivo, Pseudoperonospora cubensis; design: Disease index: scale not given here
Procedure: Protective action (field test).
Field protection test against cucumber downy mildew was carried out in the farm at a village near Shenyang City. Concentration of the Compound 1 (20% wettable powder) was set at 200, 400 and 600 ppm. Concentration of Previcur (66.5% hydrate ) which was used as the control, was set at 800, 1000 and 1200 ppm. And, a blank control was set separately also. Each treatment was run 4 times. Samples were taken for examination. […] First examination of protective effect was made on April 22. The second examination of protective effect was made on April 29, and the third examinatnion of protective effect was made on May 5.

Downy mildew [6] = experiment: Indoor comparison with Dimethomorph, test for protection (Example 11); details: seedling of yellow melon, 2 - 3 leaf stage
Excerpt: as §1

cucumber downy mildew [7] = experiment: Indoor protection test against cucumber downy mildew (Example 10); details: inoculated 24 hours after treatment, examined a week later
Procedure: (§2) Concentration of test Compound 1 (content was 9% in emulsion oil) was set at 250, 200, 150, 100 and 75 ppm. Dimethomorph (American Cyanamid) 150 ppm was used as the control. Healthy seedling of yellow melon was selected for use, and test was run three times. For protection test, treatment was carried out on September 17, 1995, and they were inoculated 24 hours later. For the therapeutic test, inoculation was made on September 18, and then they were treated 24 hours later. Examination was made a week later, and results were recorded in 9 grades, and disease index and protection effect were calculated.

cucumber downy mildew [8] = experiment: Field therapeutic test against cucumber downy mildew (Example 14); type: in vivo, Pseudoperonospora cubensis; details: three treatments, examined on June 3
Procedure: Therapeutic effect (field test).
Field therapeutic test of the compound 1 against cucumber downy mildew was carried out in a farm at a village near Shenyang City.
Concentration of the Compound 1 (20% wettable powder) was set at 100, 200 and 300 ppm. Chlor 1500 ppm was used as the control, and blank control was set separately also. Each treatment was repeated three times. First treatment was made on May 13, second treatment was made on May 20, and third treatment was made on May 27, and protective effect was examined on June 3.

cucumber downy mildew [9] = experiment: Indoor therapeutic test against cucumber downy mildew (Example 10); details: treated 24 hours after inoculation, examined a week later
Procedure: as §2

[10] = Pseudoperonospora cubensis, 24 h, read-out: % Inhibition of spore

`[Al]#[P]` [Aluminium phosphide, aluminium phosphide, reference compound] was tested, and the “Therapeutic effect (%)control” value (cucumber downy mildew [1]; 1000 ppm) was 40.0% and the “Protective effect/preventive (%)control” value (cucumber downy mildew [2]; 1000 ppm) was 75.0%.

With `N#Cc1c(Cl)c(Cl)c(Cl)c(C#N)c1Cl` [Chlorothalonil, reference compound] the “Therapeutic effect (%)control” value (cucumber downy mildew [1]; 1000 ppm) was 75.0% and the “Protective effect/preventive (%)control” value (cucumber downy mildew [2]; 1000 ppm) was 90.0%.

For `COc1ccc(/C(=C\C(=O)N2CCOCC2)c2ccc(F)cc2)cc1OC` [Compound 1], the “% Spore germination” value ([3]; 25 ppm, 25°C, after 24 hours) was 23.1%, the “Number of spores germinated” value ([3]; 25 ppm, 25°C, after 24 hours) was 198 and the “Number of ungerminated spores” value ([3]; 25 ppm, 25°C, after 24 hours) was 660. The “% Spore germination” value ([3]; 50 ppm, 25°C, after 24 hours) was 4.3%, the “Number of spores germinated” value ([3]; 50 ppm, 25°C, after 24 hours) was 45 and the “Number of ungerminated spores” value ([3]; 50 ppm, 25°C, after 24 hours) was 990. For the same molecule, the “% Spore germination” value ([3]; 100 ppm, 25°C, after 24 hours) was 1.6%, the “Number of spores germinated” value ([3]; 100 ppm, 25°C, after 24 hours) was 17 and the “Number of ungerminated spores” value ([3]; 100 ppm, 25°C, after 24 hours) was 1044. For the same molecule, the inhibition at 25 ppm [3, 10] was 65.2%, the inhibition at 50 ppm [3, 10] was 93.5% and the inhibition at 100 ppm [3, 10] was 97.6%. For the same molecule, the Disease index (late blight of tomato; 200 ppm) was 5.56, the “Protective (%)control” value (late blight of tomato; 200 ppm) was 80.9% and the Disease index (late blight of tomato; 400 ppm) was 2.59. The “Protective (%)control” value (late blight of tomato; 400 ppm) was 91.1%, the Disease index (late blight of tomato; 600 ppm) was 2.22 and the “Protective (%)control” value (late blight of tomato; 600 ppm) was 94.9%. The “Therapeutic effect (%)control” value (Downy mildew [4]; 100 ppm) was 63%, the “Therapeutic effect Disease index” value (Downy mildew [4]; 100 ppm) was 0.37 and the “Therapeutic effect (%)control” value (Downy mildew [4]; 150 ppm) was 74%. For the same molecule, the “Therapeutic effect Disease index” value (Downy mildew [4]; 150 ppm) was 0.26, the Disease index (cucumber downy mildew [5]; 200 ppm, April 22) was 0 and the “Protective (%)control” value (cucumber downy mildew [5]; 200 ppm, April 22) was 100%. The Disease index (cucumber downy mildew [5]; 200 ppm, April 29) was 0, the “Protective (%)control” value (cucumber downy mildew [5]; 200 ppm, April 29) was 100% and the Disease index (cucumber downy mildew [5]; 200 ppm, May 5) was 0.03. The “Protective (%)control” value (cucumber downy mildew [5]; 200 ppm, May 5) was 97.0%, the Disease index (cucumber downy mildew [5]; 400 ppm, April 22) was 0 and the “Protective (%)control” value (cucumber downy mildew [5]; 400 ppm, April 22) was 100%. The Disease index (cucumber downy mildew [5]; 400 ppm, April 29) was 0, the “Protective (%)control” value (cucumber downy mildew [5]; 400 ppm, April 29) was 100% and the Disease index (cucumber downy mildew [5]; 400 ppm, May 5) was 0. For the same molecule, the “Protective (%)control” value (cucumber downy mildew [5]; 400 ppm, May 5) was 100%, the Disease index (cucumber downy mildew [5]; 600 ppm, April 22) was 0 and the “Protective (%)control” value (cucumber downy mildew [5]; 600 ppm, April 22) was 100%. For the same molecule, the Disease index (cucumber downy mildew [5]; 600 ppm, April 29) was 0, the “Protective (%)control” value (cucumber downy mildew [5]; 600 ppm, April 29) was 100% and the Disease index (cucumber downy mildew [5]; 600 ppm, May 5) was 0. The “Protective (%)control” value (cucumber downy mildew [5]; 600 ppm, May 5) was 100%, the “Therapeutic effect (%)control” value (cucumber downy mildew [1]; 25 ppm) was 0.0% and the “Therapeutic effect (%)control” value (cucumber downy mildew [1]; 50 ppm) was 40.0%. For the same molecule, the “Therapeutic effect (%)control” value (cucumber downy mildew [1]; 75 ppm) was 60.0%, the “Therapeutic effect (%)control” value (cucumber downy mildew [1]; 100 ppm) was 75.0% and the “Therapeutic effect (%)control” value (cucumber downy mildew [1]; 200 ppm) was 90.0%. For the same molecule, the “Protective effect (%)control” value (Downy mildew [6]; 100 ppm) was 93%, the “Protective effect Disease index” value (Downy mildew [6]; 100 ppm) was 0.07 and the “Protective effect (%)control” value (Downy mildew [6]; 150 ppm) was 95%. The “Protective effect Disease index” value (Downy mildew [6]; 150 ppm) was 0.05, the “Protective effect/preventive (%)control” value (cucumber downy mildew [2]; 25 ppm) was 40.0% and the “Protective effect/preventive (%)control” value (cucumber downy mildew [2]; 50 ppm) was 60.0%. For the same molecule, the “Protective effect/preventive (%)control” value (cucumber downy mildew [2]; 75 ppm) was 75.0%, the “Protective effect/preventive (%)control” value (cucumber downy mildew [2]; 100 ppm) was 90.0% and the “Protective effect/preventive (%)control” value (cucumber downy mildew [2]; 200 ppm) was 100.0%. For the same molecule, the “Protection (%)control” value (cucumber downy mildew [7]; 75 ppm) was 92.5%, the “Protection Disease index” value (cucumber downy mildew [7]; 75 ppm) was 0.03 and the “Protection (%)control” value (cucumber downy mildew [7]; 100 ppm) was 100%. The “Protection Disease index” value (cucumber downy mildew [7]; 100 ppm) was 0, the “Protection (%)control” value (cucumber downy mildew [7]; 150 ppm) was 100% and the “Protection Disease index” value (cucumber downy mildew [7]; 150 ppm) was 0. The “Protection (%)control” value (cucumber downy mildew [7]; 200 ppm) was 100%, the “Protection Disease index” value (cucumber downy mildew [7]; 200 ppm) was 0 and the “Protection (%)control” value (cucumber downy mildew [7]; 250 ppm) was 100%. The “Protection Disease index” value (cucumber downy mildew [7]; 250 ppm) was 0, the Disease index (cucumber downy mildew [8]; 100 ppm) was 0.049 and the “Protective effect (%)control” value (cucumber downy mildew [8]; 100 ppm) was 88.4%. The Disease index (cucumber downy mildew [8]; 200 ppm) was 0.011, the “Protective effect (%)control” value (cucumber downy mildew [8]; 200 ppm) was 97.4% and the Disease index (cucumber downy mildew [8]; 300 ppm) was 0. For the same molecule, the “Protective effect (%)control” value (cucumber downy mildew [8]; 300 ppm) was 100%, the “Therapeutic (%)control” value (cucumber downy mildew [9]; 75 ppm) was 78.8% and the “Therapeutic Disease index” value (cucumber downy mildew [9]; 75 ppm) was 0.11. The “Therapeutic (%)control” value (cucumber downy mildew [9]; 100 ppm) was 84.6%, the “Therapeutic Disease index” value (cucumber downy mildew [9]; 100 ppm) was 0.08 and the “Therapeutic (%)control” value (cucumber downy mildew [9]; 150 ppm) was 100%. The “Therapeutic Disease index” value (cucumber downy mildew [9]; 150 ppm) was 0, the “Therapeutic (%)control” value (cucumber downy mildew [9]; 200 ppm) was 98.1% and the “Therapeutic Disease index” value (cucumber downy mildew [9]; 200 ppm) was 0.01. The “Therapeutic (%)control” value (cucumber downy mildew [9]; 250 ppm) was 100% and the “Therapeutic Disease index” value (cucumber downy mildew [9]; 250 ppm) was 0.

For `COc1ccc(C(=CC(=O)N2CCOCC2)c2ccc(Cl)cc2)cc1OC` [Dimethomorph, reference compound], the “% Spore germination” value ([3]; 50 ppm, 25°C, after 24 hours) was 38.2%, the “Number of spores germinated” value ([3]; 50 ppm, 25°C, after 24 hours) was 208 and the “Number of ungerminated spores” value ([3]; 50 ppm, 25°C, after 24 hours) was 336. For the same molecule, the inhibition at 50 ppm ([3]; Pseudoperonospora cubensis, 50 ppm, 25°C, after 24 hours, read-out: % Inhibition of spore) was 42.5%, the “Therapeutic effect (%)control” value (Downy mildew [4]; 100 ppm) was 2% and the “Therapeutic effect Disease index” value (Downy mildew [4]; 100 ppm) was 0.98. The “Therapeutic effect (%)control” value (Downy mildew [4]; 150 ppm) was 24%, the “Therapeutic effect Disease index” value (Downy mildew [4]; 150 ppm) was 0.76 and the “Protective effect (%)control” value (Downy mildew [6]; 100 ppm) was 61%. The “Protective effect Disease index” value (Downy mildew [6]; 100 ppm) was 0.39, the “Protective effect (%)control” value (Downy mildew [6]; 150 ppm) was 79% and the “Protective effect Disease index” value (Downy mildew [6]; 150 ppm) was 0.21. For the same molecule, the “Protection (%)control” value (cucumber downy mildew [7]; 150 ppm) was 100%, the “Protection Disease index” value (cucumber downy mildew [7]; 150 ppm) was 0 and the “Therapeutic (%)control” value (cucumber downy mildew [9]; 150 ppm) was 63.5%. The “Therapeutic Disease index” value (cucumber downy mildew [9]; 150 ppm) was 0.19.

For `COCC(=O)N(c1c(C)cccc1C)C(C)C(=O)OC` (stereo not drawn) [metalaxyl, reference compound], the “Therapeutic effect (%)control” value (cucumber downy mildew [1]; 500 ppm) was 40.0% and the “Protective effect/preventive (%)control” value (cucumber downy mildew [2]; 500 ppm) was 60.0%.
